{
  "source": "patent US12338243B2",
  "about": "“P2X7 modulators” (JANSSEN PHARMACEUTICA NV, priority 2014, dated 2025)",
  "key": {"[1]": {"target": "T1, P2X7 (Homo sapiens, UniProt Q99572)", "T1 sequence (Q99572 1-595)": "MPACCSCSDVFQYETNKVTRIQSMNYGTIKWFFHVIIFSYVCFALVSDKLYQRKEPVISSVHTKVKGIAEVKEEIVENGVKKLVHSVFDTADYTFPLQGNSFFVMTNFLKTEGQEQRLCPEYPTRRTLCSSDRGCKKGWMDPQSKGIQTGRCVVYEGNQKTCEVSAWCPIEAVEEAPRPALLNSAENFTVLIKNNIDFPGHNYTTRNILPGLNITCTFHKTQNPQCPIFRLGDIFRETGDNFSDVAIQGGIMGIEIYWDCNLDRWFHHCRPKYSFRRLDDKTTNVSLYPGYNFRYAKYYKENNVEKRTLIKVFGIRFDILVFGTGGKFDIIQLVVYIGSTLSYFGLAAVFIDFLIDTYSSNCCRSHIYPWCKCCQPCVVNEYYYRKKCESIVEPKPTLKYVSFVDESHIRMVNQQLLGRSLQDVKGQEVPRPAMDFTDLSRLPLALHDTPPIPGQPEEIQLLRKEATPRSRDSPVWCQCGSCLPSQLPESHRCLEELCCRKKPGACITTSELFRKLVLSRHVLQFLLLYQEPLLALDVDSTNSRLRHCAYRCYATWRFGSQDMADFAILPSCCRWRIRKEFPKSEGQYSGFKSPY", "test": "Radioligand binding, human P2X7-1321N1 cell membranes, tritiated A-804598", "text": "P2X7 Antagonism in Recombinant Human P2X7 Cells or Recombinant Rat P2X7 Cells: (a) Ca^2+ Flux and (b) Radioligand Binding"}, "[2]": {"target": "T2, rat P2X7 (Rattus norvegicus, UniProt Q64663)", "T2 sequence (Q64663 1-595)": "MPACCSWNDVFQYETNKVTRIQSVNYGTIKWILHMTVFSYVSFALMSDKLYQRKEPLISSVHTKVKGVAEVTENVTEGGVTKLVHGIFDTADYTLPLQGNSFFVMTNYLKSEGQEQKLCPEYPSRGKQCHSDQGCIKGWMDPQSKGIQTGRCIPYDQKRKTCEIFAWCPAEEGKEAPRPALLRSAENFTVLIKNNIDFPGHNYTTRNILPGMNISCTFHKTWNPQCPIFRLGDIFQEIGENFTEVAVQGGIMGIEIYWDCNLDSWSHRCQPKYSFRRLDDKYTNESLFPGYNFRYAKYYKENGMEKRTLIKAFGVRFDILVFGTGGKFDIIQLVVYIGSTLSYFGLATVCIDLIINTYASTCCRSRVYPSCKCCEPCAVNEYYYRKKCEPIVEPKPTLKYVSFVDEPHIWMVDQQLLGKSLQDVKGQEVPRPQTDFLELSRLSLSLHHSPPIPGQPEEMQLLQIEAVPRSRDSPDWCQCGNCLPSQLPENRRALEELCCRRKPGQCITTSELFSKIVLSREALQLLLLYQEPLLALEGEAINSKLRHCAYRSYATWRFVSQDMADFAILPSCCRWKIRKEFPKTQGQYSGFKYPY", "test": "Ca2+ flux (FLIPR) in 1321N1 cells expressing recombinant rat P2X7 channel", "settings": "FLIPR (rat) IC50 (μM), 250 μM BzATP"}, "[3]": {"target": "T1, P2X7", "test": "Ca2+ flux (FLIPR) in 1321N1 cells expressing recombinant human P2X7 channel", "type": "cell-based", "design": "expressed in transfected cells; host or cells: 1321N1 cells", "settings": "250 μM BzATP", "how_it_was_run": "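1321N1 cells expressing recombinant human P2X7, loaded 60 min with Calcium-4 dye in HEPES buffer pH 7.40 (1 mM CaCl2, 1 mM MgCl2), preincubated 30 min with compounds. Fluorescence change recorded 180 seconds after agonist addition.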"}},
  "data": [
    {"smiles": "Cc1nnc2n1CCN(C(=O)c1cccc(C(F)(F)F)c1Cl)[C@@H]2c1ccccc1", "note": "[Example 67, (R)-(2-chloro-3-(trifluoromethyl)phenyl)(3-methyl-8-phenyl-5,6-dihydro-[1,2,4]triazolo[4,3-a]pyrazin-7(8H)-yl)methanone]", "values": [
      {"measurement": "Ki", "setting": "[1]", "result": 316, "unit": "nM"},
      {"measurement": "IC50", "setting": "[2]", "result": 2.05, "unit": "µM"},
      {"measurement": "IC50", "setting": "[3]", "result": 483, "unit": "nM"}
    ]},
    {"smiles": "Cc1nnc2n1CCN(C(=O)c1cccc(C(F)(F)F)c1Cl)C2c1ccc(F)cc1", "note": "(racemic) [Example 101, (±)-(2-chloro-3-(trifluoromethyl)phenyl)(8-(4-fluorophenyl)-3-methyl-5,6-dihydro-[1,2,4]triazolo[4,3-a]pyrazin-7(8H)-yl)methanone]", "values": [
      {"measurement": "Ki", "setting": "[1]", "result": 31.6, "unit": "nM"},
      {"measurement": "IC50", "setting": "[2]", "result": 5.06, "unit": "µM"},
      {"measurement": "IC50", "setting": "[3]", "result": 27.8, "unit": "nM"}
    ]},
    {"smiles": "Cc1nnc2n1CCN(C(=O)c1cccc(Cl)c1Cl)[C@H]2c1ccc(F)cc1", "note": "[Example 105, (S)-(2,3-dichlorophenyl)(8-(4-fluorophenyl)-3-methyl-5,6-dihydro-[1,2,4]triazolo[4,3-a]pyrazin-7(8H)-yl)methanone]", "values": [
      {"measurement": "Ki", "setting": "[1]", "result": 21.9, "unit": "nM"},
      {"measurement": "IC50", "setting": "[2]", "result": 9.95, "unit": "µM"},
      {"measurement": "IC50", "setting": "[3]", "result": 98.6, "unit": "nM"}
    ]},
    {"smiles": "O=C(c1ccc(Cl)cc1Cl)N1CCn2c(nnc2C(F)(F)F)[C@H]1c1ccccc1", "note": "[Example 120, (R)-(2,4-dichlorophenyl)(8-phenyl-3-(trifluoromethyl)-5,6-dihydro-[1,2,4]triazolo[4,3-a]pyrazin-7(8H)-yl)methanone]", "values": [
      {"measurement": "Ki", "setting": "[1]", "result": 50.1, "unit": "nM"},
      {"measurement": "IC50", "setting": "[2]", "result": "> 10", "unit": "µM"},
      {"measurement": "IC50", "setting": "[3]", "result": 476, "unit": "nM"}
    ]},
    {"smiles": "O=C(c1cccc(C(F)(F)F)c1Cl)N1CCn2c(-c3ccco3)nnc2C1c1ccccc1", "note": "(racemic) [Example 79, (±)-(2-chloro-3-(trifluoromethyl)phenyl)(3-(furan-2-yl)-8-phenyl-5,6-dihydro-[1,2,4]triazolo[4,3-a]pyrazin-7(8H)-yl)methanone]", "values": [
      {"measurement": "Ki", "setting": "[1]", "result": 100, "unit": "nM"},
      {"measurement": "IC50", "setting": "[2]", "result": 0.0071, "unit": "µM"},
      {"measurement": "IC50", "setting": "[3]", "result": 15.1, "unit": "nM"}
    ]},
    {"smiles": "C[C@H]1Cn2c(nnc2-c2cccc(F)c2F)CN1C(=O)c1cccc(Cl)c1Cl", "note": "[Example 44, (S)-(2,3-dichlorophenyl)(3-(2,3-difluorophenyl)-6-methyl-5,6-dihydro-[1,2,4]triazolo[4,3-a]pyrazin-7(8H)-yl)methanone]", "values": [
      {"measurement": "IC50", "setting": "[2]", "result": 1.46, "unit": "µM"},
      {"measurement": "IC50", "setting": "[3]", "result": 3920, "unit": "nM"}
    ]},
    {"smiles": "C[C@H]1Cn2c(nnc2-c2ccc(F)c(F)c2)CN1C(=O)c1ccc(F)c(Cl)c1Cl", "note": "[Example 49, (S)-(2,3-dichloro-4-fluorophenyl)(3-(3,4-difluorophenyl)-6-methyl-5,6-dihydro-[1,2,4]triazolo[4,3-a]pyrazin-7(8H)-yl)methanone]", "values": [
      {"measurement": "IC50", "setting": "[2]", "result": 2.73, "unit": "µM"},
      {"measurement": "IC50", "setting": "[3]", "result": 4110, "unit": "nM"}
    ]},
    {"smiles": "CC1CN(C(=O)c2cccc(Cl)c2Cl)Cc2nnc(-c3ccccn3)n21", "note": "(stereo not drawn) [Example 34, (2,3-dichlorophenyl)(5-methyl-3-(pyridin-2-yl)-5,6-dihydro-[1,2,4]triazolo[4,3-a]pyrazin-7(8H)-yl)methanone]", "values": [
      {"measurement": "IC50", "setting": "[2]", "result": "> 10", "unit": "µM"},
      {"measurement": "IC50", "setting": "[3]", "result": 12900, "unit": "nM"}
    ]},
    {"smiles": "C[C@H]1Cn2c(nnc2-c2ccc(F)cc2F)CN1C(=O)c1cccc(C(F)(F)F)c1Cl", "note": "[Example 51, (S)-(2-chloro-3-(trifluoromethyl)phenyl)(3-(2,4-difluorophenyl)-6-methyl-5,6-dihydro-[1,2,4]triazolo[4,3-a]pyrazin-7(8H)-yl)methanone]", "values": [
      {"measurement": "IC50", "setting": "[2]", "result": 0.578, "unit": "µM"},
      {"measurement": "IC50", "setting": "[3]", "result": 1930, "unit": "nM"}
    ]},
    {"smiles": "O=C(c1cccc(Cl)c1Cl)N1CCn2c(C(F)F)nnc2[C@@H]1c1ccccc1", "note": "[Example 111, (S)-(2,3-dichlorophenyl)(3-(difluoromethyl)-8-phenyl-5,6-dihydro-[1,2,4]triazolo[4,3-a]pyrazin-7(8H)-yl)methanone]", "values": [
      {"measurement": "IC50", "setting": "[2]", "result": "> 10", "unit": "µM"},
      {"measurement": "IC50", "setting": "[3]", "result": "> 10000", "unit": "nM"}
    ]},
    {"smiles": "O=C(c1cccc(C(F)(F)F)c1Cl)N1CCn2c(-c3ccco3)nnc2[C@H]1c1ccccc1", "note": "[Example 83, (R)-(2-chloro-3-(trifluoromethyl)phenyl)(3-(furan-2-yl)-8-phenyl-5,6-dihydro-[1,2,4]triazolo[4,3-a]pyrazin-7(8H)-yl)methanone]", "values": [
      {"measurement": "IC50", "setting": "[2]", "result": 0.998, "unit": "µM"},
      {"measurement": "IC50", "setting": "[3]", "result": 1790, "unit": "nM"}
    ]}
  ]
}
